Reference: US5594024A, “Centrally actig substituted phenylazacycloalkanes” (priority 1995, dated 1997)
Read-outs that look alike come from different tables or passages of the source. One block for each compound: values may come before it.

Key:
[1] = target: T1, 5-HT1A (Rattus norvegicus, UniProt P19327); experiment: 5-HT1A radioligand binding ([3H]-8-OH-DPAT); parameters: species or system rat (male Sprague-Dawley)
T1 construct: the whole brain with the exception of the brainstem and cerebellum was rapidly removed; from tissue
T1 sequence (P19327 1-422): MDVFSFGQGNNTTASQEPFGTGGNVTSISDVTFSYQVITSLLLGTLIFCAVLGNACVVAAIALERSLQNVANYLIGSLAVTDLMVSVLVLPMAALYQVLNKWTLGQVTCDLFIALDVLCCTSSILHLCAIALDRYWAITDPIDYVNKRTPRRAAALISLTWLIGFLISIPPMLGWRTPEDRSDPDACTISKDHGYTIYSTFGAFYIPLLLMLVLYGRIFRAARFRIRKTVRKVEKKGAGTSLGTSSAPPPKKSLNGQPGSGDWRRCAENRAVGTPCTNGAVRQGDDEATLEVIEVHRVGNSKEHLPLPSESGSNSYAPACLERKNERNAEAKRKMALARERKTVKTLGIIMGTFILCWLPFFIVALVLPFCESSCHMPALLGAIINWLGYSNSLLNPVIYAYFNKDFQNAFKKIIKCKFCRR
Procedure: ^b Serotonin 5HT1A ([^3 H]-8OH-DPAT, agonist) rat cortex.
5-HT1A radioligand binding. Male Sprague-Dawley rats (160-225 g) were killed by decapitation and the whole brain with the exception of the brainstem and cerebellum was rapidly removed, weighed and chilled in ice-cold 0.9% NaCl. Each brain was homogenized (Ultra-Turrax, 20 s) in 10 mL ice-cold 50 mM Tris buffer (pH 8.0 at 25° C.) containing 120 mM NaCl, 4 mM CaCl2 and 4 mM MgCl2 and centrifuged at 20,000 g's at 4° C. for 10 minutes. Pellets were resuspended in 10 mL fresh buffer and preincubated for 10 minutes in a 37° C. waterbath and then recentrifuged. Final pellets were homogenized in 100 volumes (w/v) of Tris buffer (as described above) containing 10 μM pargyline. The incubation tubes were kept on ice in triplicates and received 100 μL drug solution in water (or water for total binding) and 1000 μL membrane suspension (corresponds to 10 mg original tissue). The binding experiment was initiated by addition of 100 μL of (3H)-8-OH-DPAT (specific activity 143-158 Ci/mmol) in ascorbic acid (the final incubation concentration was 1 nM (3H)-8-OH-DPAT in 0.1% ascorbic acid). After incubation for 15 minutes at 37° C. the reaction was terminated by separation of the free radioligand from bound by rapid vacuum filtration using a cell harvester equipment (O. M. Teknik, Denmark). The tubes were rinsed with 4 mL and the filters (Whatman GF/F 25 mm) were washed twice with 4 mL ice-cold 0.9% NaCl.
The radioactivity of the filters was measured in a liquid scintillation counter (efficiency 41%) in 5 mL Picofluor®. Specific binding (70-75% of total binding) was defined as the radioactivity displaced by 10 μM 5-HT. IC50 values were calculated by semi-log plot and linear regression analysis.

[2] = system: DA receptor; experiment: DA metabolism (DOPAC, HVA levels) in habituated rats; assay type: in vivo, rat (male Sprague-Dawley); settings: for response vs control in vivo at 100 µmol/kg: Rattus norvegicus, 1 h
Procedure: (§1) Footnotes Table 3. The rats were habituated to the motility meters 60 min
The rats were immediately killed after the activity session, striata
and limbic levels of DOPAC and 5HIAA were measured by means of HPLCEC. *p
In the experiments with habituated rats no NSD was administered and the animals were killed one hour after drug administration. […] The levels were expressed as % of controls (DOPAC and 5-HIAA see Table 3). The in vivo brain microdialysis experiments were performed in conscious rats as described by Waters et al., Eur. J. Pharm., 187, 425-34 (1990).
(§2) Injection volumes were 5 mL/kg.
After the activity session the rats were killed and the brain levels of HVA and DOPAC were measured (data are expressed as means ±SEM).

[3] = system: habituated rats; experiment: Locomotor activity and behavior in habituated rats; assay type: in vivo, rat (male Sprague-Dawley); settings: 100 μmol/kg sc, habituated rats; for response vs control in vivo at 100 µmol/kg: Rattus norvegicus, 1 h, read-out: Motor Activity
Procedure: as §1
prior to the activity session.
as §2
Locomotor activity was measured in rats which were habituated 60 minutes to the activity meters before drug injection. The activity was measured for the subsequent 60 minutes and expressed as % of controls (means ±SEM, n=4).

[4] = target: T2, D2 receptors (Rattus norvegicus, UniProt P61169); experiment: D2 antagonist binding ([3H]-spiperone), rat striatum
T2 construct: Preparation of rat striatal membranes for (3H)-spiperone; from tissue; host or cells: rat striatum (striatal membranes)
Procedure: D2 antagonist binding. Preparation of rat striatal membranes for (3H)-spiperone (specific activity 21-24 Ci/mmol) binding was carried out in a similar manner as described for D1-binding, Hyttel et al., J. Neural. Transm., 68, 171 (1987).
IC50 values were calculated by semi-log plot and linear regression analysis.

[5] = system: 5-HT receptor; experiment: 5-HTP accumulation (5-HT synthesis rate) in non-pretreated rats after NSD 1015; assay type: in vivo, rat (male Sprague-Dawley)
Procedure: observations are commented to the right. After the session the rats were
accumulation in the NErich cortical regions and 5HTP in the limbic
as §2

[6] = system: DA receptor; experiment: DOPA accumulation (DA synthesis rate) in non-pretreated rats after NSD 1015
Procedure: injected with NSD 1015 (100 mg/kg, i.p.) and then killed 30 min later.
In-vivo determination of rat brain monoamine metabolites and tyrosine and tryptophan hydroxylation (biochemically monitored DA and 5-HT receptor agonist or antagonist activity).
The compounds under evaluation were tested biochemically for central DA and 5-HT receptor (pre- and/or postsynaptic) stimulating and/or blocking activity. The concept of this biochemical screening method is that a DA or 5-HT receptor agonist will stimulate the receptor and through regulatory negative feed-back systems induce a decline in tyrosine or tryptophan hydroxylating activity, respectively, and a subsequent reduction in the synthesis rate of DA and 5-HT in the presynaptic neuron. […] The biochemical experiments and the determinations of Dopa and 5-HTP by means of HPLC with electrochemical detection were performed. The antagonistic effects were seen as increases in the synthesis rate (n=4), as a result of the positive feed-back upregulation of synthesis. The effects on Dopa and 5-HTP accumulation are expressed as % of controls, which were: DOPA limbic system=447±23 ng/g and DOPA striatum=1045±47ng/g, 5-HTP limbic region 241±2 ng/g (Table 2).
(§3) Animals used in the biochemical and motor activity experiments were male rats of the Sprague-Dawley strain (ALAB, Sollentuna, Sweden), weighing 200-300 g. The rats were kept 5 per cage with free access to water and food (except for the starved animals for the experiments with per oral administration, who were only allowed water the last 18 hours before testing), at least one week from arrival until used in the experiments.
(§4) All substances to be tested were dissolved in saline immediately before use, occasionally with the addition of a few drops of glacial acetic acid and/or moderate heating in order to obtain complete dissolution. Injection volumes were 5 mL/kg.
Analysis of variance (ANOVA) followed by Fischer's test was used for the statistical calculations. P values less than 0.05 were regarded statistically significant.
DOPA accumulation (DA synthesis rate) in non-pretreated rats (Table 2). After the locomotor activity session (see Table 2, above) the rats were injected with the decarboxylase inhibitor NSD 1015 (100 mg/kg, sc) and killed 30 minutes later. The DOPA accumulation in the DA -rich limbic and striatal and the NE-rich cortical (mainly hemispheres) brain areas were expressed as % of saline treated controls.
DOPA accumulation, time course after s.c. and p.o. administration (Table 2). […] NSD 1015 (100 mg/kg, sc) was injected 30 minutes before death. The data are expressed as % of saline treated controls.

[7] = system: non-pretreated rats; experiment: Locomotor activity and gross behavior in non-habituated (non-pretreated) rats; settings: non-pretreated rats; for Motor Act.: 30 min
Description: Immediately after drug administration, the rats were placed in the test cages (one rat/cage) and put into the motility meters. […] Observations of gross behavior were made throughout the activity sessions through semi-transparent mirrors.
as §3, §4
Analysis of variance (ANOVA) followed by Fischer's test was used for the statistical calculations.
In vivo behavioral data was obtained with rats injected with drug and 5 minutes later put into the motility chambers for the first time. The motor activity was measured for the subsequent 30 minutes (accumulated counts/30 minutes) and expressed as % of saline treated controls.

[8] = [3H]-8-OH-DPAT, rat cortex, read-out: in vitro binding IC50, 5HT1A
[9] = [3H]-spiperone, rat striatum, read-out: in vitro binding IC50, D2 -spip
[10] = read-out: in vitro binding IC50, D2 -spip, [3H]-spiperone, rat striatum
[11] = 100 μmol/kg sc, habituated rats
[12] = 100 μmol/kg sc, habituated rats, read-out: DOPAC limbic
[13] = 100 μmol/kg sc, habituated rats, read-out: DOPAC striatum

T2 sequence (P61169 whole entry): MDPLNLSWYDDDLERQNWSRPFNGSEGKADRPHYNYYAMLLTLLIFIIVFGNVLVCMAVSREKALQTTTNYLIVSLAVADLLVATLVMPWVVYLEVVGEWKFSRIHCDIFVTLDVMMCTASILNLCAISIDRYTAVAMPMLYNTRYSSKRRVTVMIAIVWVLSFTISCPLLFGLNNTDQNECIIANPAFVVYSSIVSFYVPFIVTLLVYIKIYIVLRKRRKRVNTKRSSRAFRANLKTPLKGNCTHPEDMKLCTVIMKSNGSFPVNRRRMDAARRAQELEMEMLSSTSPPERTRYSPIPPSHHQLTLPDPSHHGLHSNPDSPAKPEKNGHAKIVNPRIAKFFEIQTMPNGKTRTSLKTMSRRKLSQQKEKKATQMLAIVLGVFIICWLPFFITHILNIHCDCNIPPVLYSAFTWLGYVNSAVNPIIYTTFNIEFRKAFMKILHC

SMILES: N#Cc1cccc([C@@H]2CCCN(CC3CC3)C2)c1 [Compound S-38, S-3-(3-Cyanophenyl-N-cyclopropylmethyl)piperidine]
- IC50 [1, 8]: 7.9 µM
- response vs control in vivo at 100 µmol/kg ([2]; sc, read-out: DOPAC limbic): 221 ± 8%

- IC50 [1, 8]: 1.4 µM
SMILES: CCCN1CCCC(c2ccccc2OS(=O)(=O)C(F)(F)F)C1 (racemic) [Racemic-19, 3-((2-(Trifluoromethyl)sulfonyl)oxyphenyl-N-n-propyl)piperidine]
- Behavioral observations [3]: No activation
- response vs control in vivo at 100 µmol/kg ([3]; 60 min): 101 ± 14%

- IC50 [4, 9]: 71 µM
- IC50 [1, 8]: 14 µM
SMILES: CCCN1CCCC(c2ccc(OS(=O)(=O)C(F)(F)F)cc2)C1 (racemic) [Racemic-20, 3-((4-(Trifluoromethyl)sulfonyl)oxyphenyl-N-n-propyl)piperidine]

SMILES: O=S(=O)(Oc1cccc([C@@H]2CCCN(CCc3ccccc3)C2)c1)C(F)(F)F [Compound S-18]
- IC50 [4]: 0.24 µM
- IC50 [1, 8]: 0.23 µM

SMILES: CCCN1CCCC(c2cccc(C#N)c2)C1 (racemic) [(+)-S-34]
- response vs control in vivo at 100 µmol/kg ([2]; sc, read-out: DOPAC limbic): 207 ± 6%
- response vs control in vivo at 100 µmol/kg ([2]; sc, read-out: DOPAC striatum): 291 ± 16%

SMILES: CCN1CCC[C@@H](c2cccc(C#N)c2)C1 [S-(-)-33, S-(-)-3-(3-Cyanophenyl-N-ethyl)piperidine]
- IC50 [4]: 14 µM
- IC50 [1, 8]: 22 µM
- 5-HTP acc Limbic Region ([5]; 25 sc): 83 ± 3 % of saline controls
- 5-HTP acc Limbic Region ([5]; 100 sc): 77 ± 3 % of saline controls
- response vs control in vivo at 100 µmol/kg ([2]; sc, read-out: DOPAC limbic): 153 ± 15%
- response vs control in vivo at 100 µmol/kg ([2]; sc, read-out: DOPAC striatum): 167 ± 8%
- Behavioral observations [3]: Activation
- response vs control in vivo at 100 µmol/kg ([3]; 60 min): 431 ± 80%
- DOPA acc Cortex ([6]; 25 sc): 108 ± 7 % of saline controls
- DOPA acc Stratium ([6]; 25 sc): 282 ± 11 % of saline controls
- DOPA acc Cortex ([6]; 100 sc): 137 ± 7 % of saline controls
- DOPA acc Stratium ([6]; 100 sc): 318 ± 19 % of saline controls
- Gross Behavioral Observations ([7]; 25 sc): Weak stimul.
- Motor Act. ([7]; 25 sc): 157 ± 7 % of saline controls
- Gross Behavioral Observations ([7]; 100 sc): No change
- Motor Act. ([7]; 100 sc): 113 ± 7 % of saline controls

- IC50 [4, 9]: 4 µM
- IC50 [1, 8]: 3.2 µM
SMILES: CCCN1CCC(c2cccc(OS(=O)(=O)C(F)(F)F)c2)C1 (racemic) [Racemic-21, 3-((3-(Trifluoromethyl)sulfonyl)oxyphenyl-N-n-propyl)pyrrolidine]
- Behavioral observations [3]: No activation
- response vs control in vivo at 100 µmol/kg ([3]; 60 min): 93 ± 18%

SMILES: CCCN1CCC[C@@H](c2cccc(OC)c2)C1 [S-i, S-3-(3-Methoxyphenyl-N-n-propyl)piperidine]
- IC50 [4, 9]: 21 µM
- IC50 [1, 8]: 4.5 µM

- IC50 [4, 9]: 16 µM
- IC50 [1, 8]: 2 µM
SMILES: CCCN1CCC[C@@H](c2cccc(C(=O)OC)c2)C1 [Compound S-25, S-3-(3-(Methoxycarbonyl)phenyl-N-n-propyl)piperidine]

SMILES: C=Cc1cccc([C@@H]2CCCN(CCC)C2)c1 [(-)-R-41]
- 5-HTP acc Limbic Region ([5]; 100 sc): 65 ± 2 % of saline controls
- DOPA acc Cortex ([6]; 100 sc): 121 ± 29 % of saline controls
- DOPA acc Stratium ([6]; 100 sc): 171 ± 15 % of saline controls
- Gross Behavioral Observations ([7]; 100 sc): No change
- Motor Act. ([7]; 100 sc): 125 ± 13 % of saline controls

SMILES: CC(C)N1CCC[C@@H](c2cccc(C#N)c2)C1 [Compound S-35, S-3-(3-Cyanophenyl-N-iso-propyl)piperidine]
- IC50 [4, 10]: 4.3 µM
- IC50 [1, 8]: 16 µM
- response vs control in vivo at 100 µmol/kg ([2]; sc, read-out: DOPAC striatum): 251 ± 18%
- Behavioral observations [3]: Activation

- IC50 [4, 9]: 75 µM
- IC50 [1, 8]: 6.3 µM
SMILES: CCCN1CCC[C@@H](c2cccc(C(N)=O)c2)C1 [S-(-)-29, S-(-)-3-(3-Carbamoylphenyl-N-n-propyl)piperidine]

SMILES: N#Cc1cccc([C@@H]2CCCNC2)c1 [Compound S-31, S-3-(3-Cyanophenyl)piperidine]
- IC50 [4, 9]: 16 µM
- IC50 [1]: 10 µM
- DOPAC limbic [2, 11]: 153 ± 1%
- DOPAC striatum [2, 11]: 167 ± 8 % of saline treated controls
- Behavioral observations [3]: Activation
- Motor Activity ([3]; 60 min): 431 ± 80 % of saline treated controls

- IC50 [4, 9]: 0.89 µM
- IC50 [1, 8]: 0.4 µM
SMILES: N#Cc1cccc([C@@H]2CCCN(CCc3cccs3)C2)c1 [Compound S-40, S-3-((3-Cyanophenyl)-N-(2-thiopheneethyl))piperidine]
- response vs control in vivo at 100 µmol/kg [2, 12]: 149 ± 17%
- response vs control in vivo at 100 µmol/kg [2, 13]: 201 ± 4%
- Behavioral observations [3]: Activation
- response vs control in vivo at 100 µmol/kg ([3]; 60 min): 500 ± 92%

- IC50 [4, 9]: 0.63 µM
- IC50 [1, 8]: 0.15 µM
SMILES: N#Cc1cccc([C@@H]2CCCN(CCc3ccccc3)C2)c1 [Compound S-39, S-3-((3-Cyanophenyl)-N-(2-phenylethyl))piperidine]
- response vs control in vivo at 100 µmol/kg [2, 12]: 169 ± 16%
- response vs control in vivo at 100 µmol/kg [2, 13]: 231 ± 14%
- Behavioral observations [3]: Activation
- response vs control in vivo at 100 µmol/kg ([3]; 60 min): 511 ± 69%

SMILES: CN1CCC[C@@H](c2cccc(C#N)c2)C1 [S-(+)-32, S-(+)-3-(3-Cyanophenyl-N-methyl)piperidine]
- IC50 [4, 9]: 50 µM
- IC50 [1, 8]: 14 µM
- 5-HTP acc Limbic Region ([5]; 25 sc): 98 ± 7 % of saline controls
- 5-HTP acc Limbic Region ([5]; 100 sc): 78 ± 2 % of saline controls
- response vs control in vivo at 100 µmol/kg ([2]; sc, read-out: DOPAC limbic): 110 ± 6%
- response vs control in vivo at 100 µmol/kg ([2]; sc, read-out: DOPAC striatum): 120 ± 5%
- DOPA acc Cortex ([6]; 25 sc): 91 ± 5 % of saline controls
- DOPA acc Stratium ([6]; 25 sc): 132 ± 9 % of saline controls
- DOPA acc Cortex ([6]; 100 sc): 109 ± 12 % of saline controls
- DOPA acc Stratium ([6]; 100 sc): 215 ± 6 % of saline controls
- Gross Behavioral Observations ([7]; 25 sc): No change
- Motor Act. ([7]; 25 sc): 128 ± 27 % of saline controls
- Motor Act. ([7]; 100 sc): 79 ± 2 % of saline controls

SMILES: C=CCN1CCC[C@@H](c2cccc(C#N)c2)C1 [Compound S-37, S-3-(3-Cyanophenyl-N-allyl)piperidine]
- IC50 [4, 10]: 8.2 µM
- IC50 [1, 8]: 12 µM
- response vs control in vivo at 100 µmol/kg ([2]; sc, read-out: DOPAC limbic): 205 ± 17%

SMILES: CCCCN1CCC[C@@H](c2cccc(C#N)c2)C1 [Compound S-36, S-3-(3-Cyanophenyl-N-n-butyl)piperidine]
- IC50 [4, 10]: 3.7 µM
- IC50 [1, 8]: 5.6 µM
